Experimental data from a melting point compilation (Tetko et al.; mined from patent text by program, amines drawn as free bases though some values may be those of a salt).

First: N#CCc1cccc(C#CCOc2ccc(Br)cn2)c1
Second: Nc1cccc(-c2cnc(N)nc2)c1
The melting point of the first is lower: 121 to 123 °C for the first, 171 to 172 °C for the second.

First: N[C@H]1CCN(c2cc3c(cc2F)c(=O)c(C(=O)O)cn3-c2nc[nH]n2)C1
Second: O=C(O)c1cn(C2CC2)c2c(F)c(N3CCCC(n4ccnn4)C3)c(F)cc2c1=O (stereo unspecified)
The melting point of the first is higher: 250 to 260 °C for the first, 239 to 240 °C for the second.

Compared with COC(=O)c1ccc(C[C@H](NC(=O)OCc2ccccc2)C(=O)O)cc1, CCOC(=O)c1cc(NCc2ccccc2)c(Nc2ccc(OC)cc2)c(S(N)(=O)=O)c1 is higher in melting point: 102 to 106 °C for the first, 145 °C for the second.

First: O=C(CCCCCNC(=O)[C@H](Cc1c[nH]c2ccccc12)NC(=O)CCCc1ccccc1)NO
Second: CC(C)(C)OC(=O)CC[C@H](NC(=O)c1ccc(NCCc2ccccc2)cc1F)C(=O)OC(C)(C)C
The melting point of the first is higher: 106 to 108 °C for the first, 71 to 72 °C for the second.

First: CCCC(C)SC(=O)c1ccc(NC(=O)NC)cc1Cl (stereo unspecified)
Second: CC(=O)c1ccc2c(c1)NC(NC(C)C)=NS2(=O)=O
The melting point of the first is lower: 89 to 95 °C for the first, 305 to 308 °C for the second.

Compared with CCCCCCCCCc1ccccc1O, CCCCCCCCCCCCNS(=O)(=O)c1cccc(C(F)(F)F)c1 is lower in melting point: 80 °C for the first, 65 to 68 °C for the second.

First: CCC(CC)c1ccc(Cl)c2nc(Nc3c(C)cc(Br)cc3OC)n(C)c12
Second: COc1cc(OC)c2sc(-c3c(F)cccc3F)nc2c1
The melting point of the first is higher: 218 to 220 °C for the first, 136 to 138 °C for the second.

First: CN1CC2CC(=NO)c3cccc4c3N2C(C1)c1ccccc1C4 (stereo unspecified)
Second: O=C(CCC1CCCCC1)NC1N=C(c2ccccc2)c2ccccc2NC1=NO (stereo unspecified)
The melting point of the first is higher: 209 to 210 °C for the first, 196 °C for the second.

First: O=C(NCc1ccccn1)Nc1cc(N2CC(COCc3ccccc3)OC2=O)ccn1 (stereo unspecified)
Second: O=C(O)COc1cc2c(c(Cl)c1Cl)C(=O)C(c1ccccc1)(c1ccccc1)C2
The melting point of the first is lower: 134 to 135 °C for the first, 251 to 252 °C for the second.

Compared with CCS(=O)(=O)CC(=O)c1cc(C(C)(C)C)c(O)c(C(C)(C)C)c1, CC(C)(C)c1cc(SCC(=O)N2CCN(c3ccc(NC(=N)c4cccs4)cc3)CC2)cc(C(C)(C)C)c1O is lower in melting point: 120 °C for the first, 67 to 69 °C for the second.

First: CN1CCN(C(=O)c2ccc(-c3cnc4c(c3)N(Cc3cc(F)ccc3F)CCN4)cc2)CC1
Second: CC(C)C[C@H](NCc1ccc(C(C)(C)C)cc1)C(=O)N1CCN(C(c2ccc(F)cc2)c2ccc(F)cc2)CC1
The melting point of the first is higher: 180 °C for the first, 57 to 62 °C for the second.

Going from N#Cc1c(N2CCCCC2)cc(-c2ccccc2)c2c1-c1ccccc1C2 to O=C1c2cccc3c(N4CCCCC4)c(Br)cc(c23)C(=O)N1O, the melting point rises from 156 °C to over 250 °C.

First: CC(=O)Nc1ccc2[nH]c(C(=O)N3CC(CCl)c4c3cc(N)c3ccccc43)cc2c1 (stereo unspecified)
Second: N#Cc1cnc2sc(-c3ccccc3C=O)cc2c1Nc1ccc2[nH]ccc2c1
The melting point of the first is higher: over 300 °C for the first, 222 to 224 °C for the second.

First: CC1(C)[C@H](C(=O)OCc2csc(Oc3ccccc3)n2)[C@@H]1C=C1CCSC1=O
Second: CC(=O)Nc1nc(Oc2ccccc2)nc2nc(-c3ccco3)nn12
The melting point of the first is lower: 78 °C for the first, 168 to 170 °C for the second.

Compared with Cc1ccc(S(=O)(=O)N(C)c2ccc(Cl)cc2C(=O)O)cc1, Cc1ccc(S(=O)(=O)N(c2ccc(C#N)cc2[N+](=O)[O-])C(C)C)cc1 is lower in melting point: 175 to 177 °C for the first, 125 to 126 °C for the second.

Compared with COc1cc2oc(=O)c3c(c2cc1OC)CCN(Cc1ccccc1)C3, O=C/C=C/c1c(Cl)cc(Cl)cc1OCc1ccccc1 is lower in melting point: 189 to 191 °C for the first, 109 to 112 °C for the second.

First: NC(=O)Cn1cc2c(c1)-c1ccc(Cl)cc1C(c1ccccc1)=NC2
Second: O=c1nc(Cl)cc(-c2ccccc2)n1-c1ccccc1
The melting point of the first is higher: 236 to 237 °C for the first, 141 to 143 °C for the second.

First: CCN(CC)CCn1nc2c3c(c(NC(=O)CN(CCOCc4ccccc4)Cc4ccccc4)ccc31)Oc1ccc(O)cc1-2
Second: CCN(CC)CCN1C(=O)C(OC(C)=O)C(c2ccc(OC)cc2)Sc2c1ccc1ccccc21 (stereo unspecified)
The melting point of the first is higher: 165 to 168 °C for the first, 148 to 149 °C for the second.

Compared with O=Cc1cc(O)c(O)c(C=O)c1CCC(=O)O, COc1cccc(CNc2ccc(C(C)=O)cc2)c1OCCCC(=O)O is lower in melting point: 160 to 162 °C for the first, 85 to 95 °C for the second.

Compared with CC1(C)Nc2ccccc2NC1=S, CC(C)N1NN=C(c2cn(C)c3ccccc3c2=O)N1 is lower in melting point: 140 to 142 °C for the first, 134 to 137 °C for the second.

First: CCC(O)(c1cccc(C(F)(F)F)c1)c1ccc(O)cc1O (stereo unspecified)
Second: Cc1cc(-c2cccc(C(F)(F)F)c2)nn2c(C)nnc12
The melting point of the first is lower: 137 to 138 °C for the first, 196 to 198 °C for the second.

First: COc1ccc(C2(O)C=CC=CC2CCc2c(Cl)cncc2Cl)cc1OC1CCCC1 (stereo unspecified)
Second: CC(C)n1nc(-c2c(-c3ccccc3)nn3ccc(OCCC4CCCCC4)cc23)ccc1=O
The melting point of the first is lower: 129 to 130 °C for the first, 146 to 147 °C for the second.

First: CCOC(=O)c1c(Nc2ccc(Cl)cc2)n[nH]c1C
Second: CCOC(=O)c1cnn(-c2ccc(OCC(C)C)c(C#N)c2)c1Cl
The melting point of the first is higher: 223 to 225 °C for the first, 87 °C for the second.

First: CCC(CC)Cn1c(=O)c(=O)[nH]c2cc(Cl)c([N+](=O)[O-])cc21
Second: CSC1C(=O)Nc2cccc([N+](=O)[O-])c21 (stereo unspecified)
The melting point of the first is higher: 232 to 233 °C for the first, 228 to 230 °C for the second.

First: O=C(O)C1OC(c2ccccc2)=NN1C(=O)CCS (stereo unspecified)
Second: O=C(Nc1cccnc1)N1N=CCC1c1ccccc1 (stereo unspecified)
The melting point of the first is higher: 106 to 109 °C for the first, 104 to 106 °C for the second.

First: COc1cc(OC)nc(NC(=O)NS(=O)(=O)c2ncccc2-c2ccccc2)n1
Second: CS(=O)(=O)c1c(Cl)c2cccnc2n(Cc2ccccc2)c1=O
The melting point of the first is lower: 181 °C for the first, 191 °C for the second.

Compared with C#CCN1C(=O)COc2cc(F)c(-c3ncnc(C(F)(F)F)c3Cl)cc21, O=C1N(Cc2ccc(Cl)cc2)c2ccc(Br)cc2C1(O)c1ccc2c(c1)OCO2 (stereo unspecified) is higher in melting point: 158 to 159 °C for the first, 179 to 180 °C for the second.

First: CNC(=O)N1CC(Oc2ccc(C(F)(F)F)cc2)C1
Second: Nc1ccc(OC(F)(F)F)c(C(=O)O)c1
The melting point of the first is lower: 154 to 157 °C for the first, 196 to 197 °C for the second.

First: NC(=O)N(O)Cc1ccc(Cl)s1
Second: Cc1ccsc1CN(O)C(N)=O
The melting point of the first is higher: 138 to 140 °C for the first, 110 °C for the second.

First: CCCCCCCCCCCCCCOc1ccc(CC(=O)Nc2ccc(CBr)cc2)cc1
Second: N#Cc1ccc(NCC(=O)N2CCC(Cc3ccc(F)cc3)CC2)cc1
The melting point of the first is lower: 110 to 115 °C for the first, 204 to 206 °C for the second.

First: Fc1cc(Cl)ccc1-n1nn[nH]c1=S
Second: Clc1cncc(Oc2cccc(Cl)n2)c1
The melting point of the first is higher: 128 °C for the first, 46 to 47 °C for the second.

Compared with O=C(NOCCO)c1cc(Br)c(F)c(F)c1Nc1ccc(I)cc1F, Nc1ccc(NC(=O)c2ccc(C(=O)Nc3ccc(N)cc3Cl)cc2)c(Cl)c1 is higher in melting point: 189 to 190 °C for the first, 261 °C for the second.

Compared with c1nc(NCCN2CCOCC2)c2sc3nc(N4CCCC4)c4c(c3c2n1)CCOC4, CN1C(=O)C2(COc3cc4c(cc32)OCCO4)c2c(C(=O)NC3CCCC3)cccc21 (stereo unspecified) is lower in melting point: 189 to 191 °C for the first, 135 to 136 °C for the second.

First: O=C(O)C1CCC(=O)N1c1cccc(O)c1 (stereo unspecified)
Second: CC(=O)C1=C(O)C(=C(C)Nc2cccc(NS(C)(=O)=O)c2)C(=O)OC1=O
The melting point of the first is lower: 183 to 185 °C for the first, 196 °C for the second.

First: CCC1(c2cccs2)OCC(=O)Nc2ccc(-c3csc(C#N)c3)cc21 (stereo unspecified)
Second: CCCCn1nnc(-c2cccc(-c3ccnc4c(C(=O)c5cccs5)cnn34)c2)n1
The melting point of the first is higher: 202 to 204 °C for the first, 90 °C for the second.

First: COc1nc(SC)nc(OC)c1C1CC(=O)C=C(O)C1 (stereo unspecified)
Second: CCc1c(OC)nc2nc(C#N)cn2c1C
The melting point of the first is higher: 195 to 200 °C for the first, 166 to 168 °C for the second.

First: O=C1NCC(Cc2ccccc2Br)O1 (stereo unspecified)
Second: O=C1C(=O)c2ccccc2C2=C1SCC(CN1CCC(O)CC1)O2 (stereo unspecified)
The melting point of the first is higher: 130 to 131 °C for the first, 98 to 100 °C for the second.

First: CC1CCCN(CCNc2ccnc3cc(Cl)ccc23)C1 (racemic)
Second: CCc1ccc(C2CCCCC2)nc1
The melting point of the first is higher: 148 to 151 °C for the first, 79 to 81 °C for the second.

First: COc1cc(C(C)=O)cc(C#N)c1OC
Second: CN1Cc2c(C#N)ccc3scc(c23)S1(=O)=O
The melting point of the first is lower: 125 to 126 °C for the first, 238 °C for the second.

Compared with COC=C(C(=O)OC)c1c(OC)ncnc1Oc1cccc(C)c1, COc1ccc(-c2csc(N(C)c3cc4ccccc4cn3)n2)cc1OC is higher in melting point: 107 °C for the first, 165 to 166 °C for the second.

First: O=C(Nc1cccc2c(-n3ccnc3)c(CO)cnc12)c1c(Cl)cccc1Cl
Second: Nc1ccccc1NC(=O)c1ccc(C(=O)Nc2cccc(Nc3nc(-c4cccnc4)cs3)c2)s1
The melting point of the first is lower: 205 to 207 °C for the first, 222 °C for the second.

Compared with Cn1ncc2c1CSc1cn[nH]c1-2, CCCCc1sc(C(N)=O)c2c1-c1c(cnn1C)CC2 is lower in melting point: 224 to 226 °C for the first, 119 to 121 °C for the second.

First: COc1ccc(/C=C/C(=O)C2C(=O)CC(c3ccc(OC)cc3)C([N+](=O)[O-])C2C2CCCCC2)cc1 (stereo unspecified)
Second: COC(=O)c1ccccc1Oc1ccc(Br)cc1[N+](=O)[O-]
The melting point of the first is higher: 203 to 205 °C for the first, 82 to 83 °C for the second.

Compared with Nc1nnc(-c2cc3c(Oc4ccc(Br)cc4)cncc3s2)o1, COc1ccc(COCc2nc(C(C)C)c(Sc3cc(Cl)cc(Cl)c3)n2CC(C)=O)cc1 is lower in melting point: 270 to 273 °C for the first, 87 to 90 °C for the second.

Compared with COc1ccc(C2=NNC(=O)[C@H]3CC=CC[C@@H]23)c2c1OC(C)(C)C2 (relative stereo), O=C1CCC(c2ccc(NC3=NCCO3)cc2)=NN1 is higher in melting point: 242 °C for the first, 332 to 333 °C for the second.

First: CCCCNC(=O)Cc1ccccc1
Second: CCCCOC(=O)NC(=O)C1c2ccccc2Sc2ccccc21
The melting point of the first is lower: 56 to 57 °C for the first, 151 to 154 °C for the second.

First: CC(C)N(C(=S)Nc1ccc(NC(=S)N(C(C)C)C(C)C)cc1)C(C)C
Second: CCOC(C)=C(C#N)C(=O)Nc1ccccc1F
The melting point of the first is higher: 185 °C for the first, 158 to 160 °C for the second.

Compared with Cc1ccc(-c2cc(F)c(F)cc2-c2ccc(S(N)(=O)=O)cc2)cc1Cl, CCc1cc(SCc2ccc(-c3ccccc3C#N)cc2)n2nccc2n1 is higher in melting point: 139 to 140 °C for the first, 153 to 155 °C for the second.

First: CCOC(=O)n1c2ccccc2c(=O)n1C(c1ccccc1)c1ccccc1
Second: CO[C@@H]1C=C2C=C3C(=C(C)C(=O)N3Cc3ccccc3)C[C@]2(C)[C@@H](C)[C@H]1O
The melting point of the first is higher: 115 to 118 °C for the first, 45 °C for the second.

First: CCOc1cc(Cc2cnc(N)nc2N)cc(OCC)c1N
Second: Cn1cc(Br)nc(Nc2cnn(CCO[Si](C)(C)C(C)(C)C)c2)c1=O
The melting point of the first is higher: 192 to 194 °C for the first, 172 to 173 °C for the second.

C[C@@H](OC(=O)N1C(C)(C)COC1(C)C)C(C)(C)O gave a melting point of 53 °C.
